The test system of the assay is MiaPaca-2-iRFP tumors. Nature of the assay: In vivo efficacy, subcutaneous MiaPaca-2-iRFP xenograft, intratumor treatment. The note with it: nude mice, twice a week, total 7 times. On the procedure:
FIG. 4A. schematic illustration of tumor inoculation and treatment schedule. Nude mice received subcutaneous (SC) injection of […] MiaPaca2-iRFP on day 0. Starting on week 4, the mice received intratumor injections of PBS, 5FU, RNAOG, RNAOG+5FU, or 5FU-RNAOG twice a week for total 7 times.
FIG. 4B. Tumor progression monitored by LI-COR Imaging of near infrared fluorescence intensity from the MiaPaca2-iRFP cell line that expresses iRFP.
FIG. 4C. Tumor dimensions were also measured for each treatment.
FIG. 4D. The survival curve of each treatment group. **and***indicate p<0.01 and p<0.001, respectively.
The in vitro tumor cell suppression effect of 5FU-RNAOG justified further investigation as to whether the combination of the RNAOG with the anticancer drug 5-fluorouracil (5FU) exerts anti-tumor activity in vivo. The human pancreatic cancer cell line, MiaPaca-2, was used as the model because it forms solid tumors in nude mice upon subcutaneous injection (SC). Specifically, MiaPaca-2 cells were engineered to express near infrared fluorescent protein (iRFP) which allows for real-time monitoring of tumor growth of live animals, especially when the tumor load is low. […] Tumor progression was monitored via the fluorescent intensity of iRFP (FIG. 4B), as well as the directly measured tumor size (FIG. 4C). […]

Molecules are shown by their SMILES.

Turning to `O=c1[nH]cc(F)c(=O)[nH]1` [5FU, 5-fluorouracil], the “tumor progression (iRFP fluorescence intensity and tumor size)” value is on record as “developed large tumors”.

The values are drawn from patent US20250090567A1, “5-FU AND RNAOG COMBINED IMMUNOCHEMOTHERAPY FOR PANCREATIC CANCER TREATMENT” (ARIZONA BOARD OF REGENTS ON BEHALF OF ARIZONA STATE …, priority 2022, published 2025).
